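Protocol summary: plate cells (96-well), add compound at 5 concentrations, incubate 48 h, interpolate endpoints linearly. TGI: concentration producing complete growth inhibition.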
Experiments:
Test in all cases: DTP human tumour cell line panel, 48 h
HCC-2998 colon = test system: HCC-2998 colon
SW-620 colon = test system: SW-620 colon
HS 578T breast = test system: HS 578T breast
KM12 colon = test system: KM12 colon
NCI-H460 lung = test system: NCI-H460 lung
HOP-62 NSCLC = test system: HOP-62 NSCLC
MDA-MB-435 = test system: MDA-MB-435
COLO 205 colon = test system: COLO 205 colon
HCT-116 colon = test system: HCT-116 colon
MALME-3M melanoma = test system: MALME-3M melanoma
SR leukemia = test system: SR leukemia
MDA-N = test system: MDA-N
HT29 colon = test system: HT29 colon
K-562 leukemia = test system: K-562 leukemia
SK-MEL-28 melanoma = test system: SK-MEL-28 melanoma
PC-3 prostate = test system: PC-3 prostate
OVCAR-4 ovarian = test system: OVCAR-4 ovarian
NCI-H226 lung = test system: NCI-H226 lung
A549 NSCLC = test system: A549 NSCLC
786-0 renal = test system: 786-0 renal
MCF7 breast = test system: MCF7 breast
A498 renal = test system: A498 renal
U251 CNS = test system: U251 CNS
IGROV1 ovarian = test system: IGROV1 ovarian
SF-268 CNS = test system: SF-268 CNS
ACHN renal = test system: ACHN renal
LOX IMVI melanoma = test system: LOX IMVI melanoma
TK-10 renal = test system: TK-10 renal
UACC-62 melanoma = test system: UACC-62 melanoma
RXF 393 renal = test system: RXF 393 renal
SN12C renal = test system: SN12C renal
SNB-19 CNS = test system: SNB-19 CNS
OVCAR-8 ovarian = test system: OVCAR-8 ovarian
OVCAR-3 ovarian = test system: OVCAR-3 ovarian
SF-539 CNS = test system: SF-539 CNS
SK-MEL-5 melanoma = test system: SK-MEL-5 melanoma
HOP-92 NSCLC = test system: HOP-92 NSCLC
EKVX NSCLC = test system: EKVX NSCLC
HL-60(TB) leukemia = test system: HL-60(TB) leukemia
SK-OV-3 ovarian = test system: SK-OV-3 ovarian
T-47D breast = test system: T-47D breast
NCI-H23 lung = test system: NCI-H23 lung
RPMI-8226 leukemia = test system: RPMI-8226 leukemia
HCT-15 colon = test system: HCT-15 colon
NCI/ADR-RES ovarian = test system: NCI/ADR-RES ovarian
MOLT-4 leukemia = test system: MOLT-4 leukemia
CCRF-CEM leukemia = test system: CCRF-CEM leukemia
SNB-75 CNS = test system: SNB-75 CNS
UO-31 renal = test system: UO-31 renal
SF-295 CNS = test system: SF-295 CNS
SK-MEL-2 melanoma = test system: SK-MEL-2 melanoma
BT-549 breast = test system: BT-549 breast
NCI-H522 lung = test system: NCI-H522 lung
UACC-257 melanoma = test system: UACC-257 melanoma
MDA-MB-231 breast = test system: MDA-MB-231 breast
DU-145 prostate = test system: DU-145 prostate
CAKI-1 renal = test system: CAKI-1 renal
OVCAR-5 ovarian = test system: OVCAR-5 ovarian
M14 melanoma = test system: M14 melanoma

Structure (SMILES): c1cn[nH]c1
- TGI (HCC-2998 colon): > 10 µM
- TGI (SW-620 colon): > 10 µM
- TGI (HS 578T breast): > 10 µM
- TGI (KM12 colon): > 10 µM
- TGI (NCI-H460 lung): > 10 µM
- TGI (HOP-62 NSCLC): > 10 µM
- TGI (MDA-MB-435): > 10 µM
- TGI (COLO 205 colon): > 10 µM
- TGI (HCT-116 colon): > 10 µM
- TGI (MALME-3M melanoma): > 10 µM
- TGI (SR leukemia): > 10 µM
- TGI (MDA-N): > 10 µM
- TGI (HT29 colon): > 10 µM
- TGI (K-562 leukemia): > 10 µM
- TGI (SK-MEL-28 melanoma): > 10 µM
- TGI (PC-3 prostate): > 10 µM
- TGI (OVCAR-4 ovarian): > 10 µM
- TGI (NCI-H226 lung): > 10 µM
- TGI (A549 NSCLC): > 10 µM
- TGI (786-0 renal): > 10 µM
- TGI (MCF7 breast): > 10 µM
- TGI (A498 renal): > 10 µM
- TGI (U251 CNS): > 10 µM
- TGI (IGROV1 ovarian): > 10 µM
- TGI (SF-268 CNS): > 10 µM
- TGI (ACHN renal): > 10 µM
- TGI (LOX IMVI melanoma): > 10 µM
- TGI (TK-10 renal): > 10 µM
- TGI (UACC-62 melanoma): > 10 µM
- TGI (RXF 393 renal): > 10 µM
- TGI (SN12C renal): > 10 µM
- TGI (SNB-19 CNS): > 10 µM
- TGI (OVCAR-8 ovarian): > 10 µM
- TGI (OVCAR-3 ovarian): > 10 µM
- TGI (SF-539 CNS): > 10 µM
- TGI (SK-MEL-5 melanoma): > 10 µM
- TGI (HOP-92 NSCLC): > 10 µM
- TGI (EKVX NSCLC): > 10 µM
- TGI (HL-60(TB) leukemia): > 10 µM
- TGI (SK-OV-3 ovarian): > 10 µM
- TGI (T-47D breast): > 10 µM
- TGI (NCI-H23 lung): > 10 µM
- TGI (RPMI-8226 leukemia): > 10 µM
- TGI (HCT-15 colon): > 10 µM
- TGI (NCI/ADR-RES ovarian): > 10 µM
- TGI (MOLT-4 leukemia): > 10 µM
- TGI (CCRF-CEM leukemia): > 10 µM
- TGI (SNB-75 CNS): > 10 µM
- TGI (UO-31 renal): > 10 µM
- TGI (SF-295 CNS): > 10 µM
- TGI (SK-MEL-2 melanoma): > 10 µM

Structure (SMILES): C/C(=N\n1c(Cc2ccccc2)n[nH]c1=O)c1ccc([N+](=O)[O-])cc1
- TGI (SW-620 colon): > 100 µM
- TGI (HS 578T breast): > 100 µM
- TGI (KM12 colon): > 100 µM
- TGI (BT-549 breast): > 100 µM
- TGI (NCI-H460 lung): > 100 µM
- TGI (HOP-62 NSCLC): > 100 µM
- TGI (MDA-MB-435): > 100 µM
- TGI (COLO 205 colon): > 100 µM
- TGI (HCT-116 colon): > 100 µM
- TGI (MALME-3M melanoma): > 100 µM
- TGI (MDA-N): > 100 µM
- TGI (HT29 colon): > 100 µM
- TGI (K-562 leukemia): > 100 µM
- TGI (SK-MEL-28 melanoma): > 100 µM
- TGI (PC-3 prostate): > 100 µM
- TGI (OVCAR-4 ovarian): > 100 µM
- TGI (NCI-H226 lung): > 100 µM
- TGI (A549 NSCLC): > 100 µM
- TGI (786-0 renal): > 100 µM
- TGI (MCF7 breast): > 100 µM
- TGI (NCI-H522 lung): > 100 µM
- TGI (U251 CNS): > 100 µM
- TGI (IGROV1 ovarian): > 100 µM
- TGI (UACC-257 melanoma): > 100 µM
- TGI (LOX IMVI melanoma): > 100 µM
- TGI (TK-10 renal): > 100 µM
- TGI (UACC-62 melanoma): > 100 µM
- TGI (RXF 393 renal): 57.2 µM
- TGI (SN12C renal): > 100 µM
- TGI (SNB-19 CNS): > 100 µM
- TGI (OVCAR-8 ovarian): > 100 µM
- TGI (OVCAR-3 ovarian): > 100 µM
- TGI (SK-MEL-5 melanoma): > 100 µM
- TGI (MDA-MB-231 breast): > 100 µM
- TGI (HOP-92 NSCLC): > 100 µM
- TGI (EKVX NSCLC): > 100 µM
- TGI (DU-145 prostate): > 100 µM
- TGI (HL-60(TB) leukemia): > 100 µM
- TGI (T-47D breast): > 100 µM
- TGI (NCI-H23 lung): > 100 µM
- TGI (RPMI-8226 leukemia): > 100 µM
- TGI (CAKI-1 renal): > 100 µM
- TGI (HCT-15 colon): > 100 µM
- TGI (NCI/ADR-RES ovarian): > 100 µM
- TGI (MOLT-4 leukemia): > 100 µM
- TGI (OVCAR-5 ovarian): > 100 µM
- TGI (UO-31 renal): > 100 µM
- TGI (SF-295 CNS): > 100 µM
- TGI (M14 melanoma): > 100 µM
- TGI (SK-MEL-2 melanoma): > 100 µM

— PubChem BioAssay (NCI)
